This note sets out measurements from US11046660B2, “Compounds and their use as PDE4 activators” (MIRONID LIMITED, priority 2016, dated 2021).

The target in one test is T1, full-length human PDE4B1 (Homo sapiens, UniProt Q07343).
T1 construct: stably expressed the full-length human PDE4D5, PDE4A4 and PDE4B1 long isoforms; made in house; cytosol fraction of cell lysate
Briefly: PDE4B1 long form enzyme activation radio-assay (Experiment 1, Protocol A or B). In kind it is biochemical. To be noted: mean % increase in counts over basal activity. The source says:
(§1) Experiment 1: Identification of PDE4 Long Form Activators of the Present Invention Using Full-Length Human PDE4 Isoforms PDE4D5, PDE4A4, PDE4B1 and PDE4B2
(§2) HEK 293 cells were transfected with pDEST™ PDE4 expression vectors using Lipofectamine LTX/Plus reagent (Invitrogen) as outlined by the manufacturer and clonal isolates expanded to obtain cell lines that stably expressed the full-length human PDE4D5, PDE4A4 and PDE4B1 long isoforms and the full length human PDE4B2 short isoform. These were called the HEK-PDE4D5, HEK-PDE4A4, HEK-PDE4B1 and HEK-PDE4B2 cell lines, respectively.
(§3) HEK-PDE4D5 cells were seeded out in 100 mm plates and incubated at 37° C. in an atmosphere of 5% CO2, 95% air. Cell lysates were prepared using KHEM buffer [50 mM KCl, 10 mM EGTA, 50 mM HEPES (pH 7.2), 1.92 mM MgCl2].
(§4) To prepare the cell lysates, the 100 mm plates containing the cells were placed on ice and washed with ice-cold PBS (phosphate buffered saline, pH 7.4). KHEM buffer (500 μl) was added to the cells. Cells were then scraped off the plate and triturated using a needle (BD Microlance™ 0.8, 40 mm). The lysed cells were then centrifuged at 2000 rpm for 10 minutes to remove cell debris and the supernatant (cell lysate containing recombinant PDE4D5) was transferred to a fresh tube and kept on ice.
(§5) The cell lysate containing recombinant PDE4D5 was transferred into a centrifuge tube and placed into an ultracentrifuge (BECKMAN COULTER) and spun at high speed (100,000 g) for 30 minutes at 4° C. The cytosol fraction was then collected and its protein amount determined using a BCA protein assay.
(§6) PDE assays were performed using a final concentration of 10 mM Tris/5 mM MgCl2 and 1 μM [^3H]-cAMP (Perkin Elmer) plus PDE4D5 cell lysate cytosol fraction, containing over-expressed PDE4D5, with and without test compound. Incubations were performed at 30° C. for 5 minutes. The samples were then placed in a boiling water bath for 2 minutes to denature the PDE enzyme, and returned to ice. Samples were allowed to cool for 10 min after which snake venom 5′-nucleotidase (25 μl, 1 mg/ml; Sigma) was added. The tubes were vortexed and incubated in a water bath at 30° C. for 10 minutes, to attain conversion of [^3H]-5′-AMP to [^3H]-adenosine, and then placed on ice. Dowex ion exchange resin (Sigma) prepared as a 1:1 Dowex: water stock was thoroughly re-suspended and diluted 2:1 with ethanol. The resulting Dowex suspension (0.4 ml) was added to each tube. Tubes were vortexed to mix and then incubated on ice for at least 15 minutes before a final vortex. The Dowex resin was pelleted by centrifugation at 13,000 g at 4° C. for 3 minutes and 150 μl of the supernatant was removed to an Eppendorf tube containing 1 ml of ScintiSafe3 scintillation fluid (Fisher). Tubes were vortexed thoroughly to mix and the recovered [^3H]-adenosine was quantified by measuring counts over 1 minute in a scintillation counter.
(§7) The % increase in counts in the presence of test compound at a particular concentration indicates the % increase in enzyme activity at that concentration.
(§8) PDE assays were performed in thin walled V-bottomed 96-well plates. The assays were performed at a final concentration of 10 mM Tris/5 mM MgCl2 plus PDE4D5 cell lysate cytosol fraction, containing over-expressed PDE4D5, with and without test compound. The lysate/compound mix were incubated together for 15 min at room temperature on an orbital shaker prior to addition of [^3H] cAMP (final concentration 1 μM [^3H] cAMP; Perkin Elmer) to a final volume of 50 μl per reaction. The reactions were then incubated for 10 minutes at 30° C., terminated by heating for 2 min at 95° C. and allowed to cool. Snake venom (12.5 μl of 1 mg/ml; Crotalus atrox, Sigma) was then added and the plates were agitated and incubated for a further 15 minutes at 30° C. […]

The target in another test is T2, full-length human PDE4D5 (Homo sapiens, UniProt Q08499).
T2 construct: stably expressed the full-length human PDE4D5, PDE4A4 and PDE4B1 long isoforms; made in house; cytosol fraction of cell lysate
T2 sequence (Q08499 1-745 isoform Q08499-6): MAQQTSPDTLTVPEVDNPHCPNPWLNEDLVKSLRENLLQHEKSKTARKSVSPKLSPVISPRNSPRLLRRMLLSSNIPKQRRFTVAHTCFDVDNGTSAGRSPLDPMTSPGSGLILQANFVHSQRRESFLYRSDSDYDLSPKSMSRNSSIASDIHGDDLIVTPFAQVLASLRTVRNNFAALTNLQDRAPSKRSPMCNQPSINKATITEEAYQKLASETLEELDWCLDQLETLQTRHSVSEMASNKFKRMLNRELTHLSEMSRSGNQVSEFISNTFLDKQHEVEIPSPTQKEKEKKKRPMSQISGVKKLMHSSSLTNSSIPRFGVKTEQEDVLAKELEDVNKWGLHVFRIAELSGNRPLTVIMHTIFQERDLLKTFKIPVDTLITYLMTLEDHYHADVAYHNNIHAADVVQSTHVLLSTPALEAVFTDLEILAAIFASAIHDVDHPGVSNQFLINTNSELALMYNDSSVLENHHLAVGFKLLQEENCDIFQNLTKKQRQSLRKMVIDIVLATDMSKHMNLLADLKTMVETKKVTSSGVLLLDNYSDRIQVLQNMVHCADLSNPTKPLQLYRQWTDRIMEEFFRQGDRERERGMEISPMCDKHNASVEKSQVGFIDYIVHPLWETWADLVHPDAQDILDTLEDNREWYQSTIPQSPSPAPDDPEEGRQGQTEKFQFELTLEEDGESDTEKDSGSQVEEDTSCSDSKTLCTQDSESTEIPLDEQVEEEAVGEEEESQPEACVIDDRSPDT
Kind of test: PDE4D5 long form enzyme activation radio-assay (Experiment 1, Protocol A or B). The note with it: 30 μM, mean % increase in counts over basal activity. In kind it is biochemical.
Description: as §1, §2, §3, §4, §5, §6, §7, §8

For the next test, the target named is T3, full-length human PDE4B2 (Homo sapiens, UniProt Q07343).
T3 construct: and the full length human PDE4B2 short isoform; made in house; cytosol fraction of cell lysate
T3 sequence (Q07343 1-564 isoform Q07343-2): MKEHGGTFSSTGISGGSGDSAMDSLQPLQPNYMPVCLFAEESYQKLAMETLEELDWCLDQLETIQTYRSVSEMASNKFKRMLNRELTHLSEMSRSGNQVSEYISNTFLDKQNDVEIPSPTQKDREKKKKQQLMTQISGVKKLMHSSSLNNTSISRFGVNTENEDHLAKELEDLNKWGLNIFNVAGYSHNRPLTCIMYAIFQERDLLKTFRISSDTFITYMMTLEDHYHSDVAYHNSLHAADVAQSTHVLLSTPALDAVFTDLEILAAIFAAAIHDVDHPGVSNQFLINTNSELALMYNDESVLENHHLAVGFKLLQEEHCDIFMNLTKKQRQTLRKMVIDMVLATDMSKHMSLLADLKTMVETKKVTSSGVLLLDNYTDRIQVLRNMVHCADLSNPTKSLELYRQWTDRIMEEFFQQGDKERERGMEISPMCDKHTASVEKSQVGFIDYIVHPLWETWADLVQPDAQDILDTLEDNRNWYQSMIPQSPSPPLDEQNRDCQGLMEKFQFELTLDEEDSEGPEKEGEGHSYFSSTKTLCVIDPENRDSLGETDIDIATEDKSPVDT
Kind of test: PDE4B2 short form enzyme activation radio-assay (Experiment 1, Protocol A or B). In kind it is biochemical. To be noted: 30 μM, mean % increase in counts over basal activity.
Description: as §1, §2, §3, §4, §5, §6, §7, §8

Test [1] relates to MDCK cells. Kind of test: Reduction of intracellular cAMP levels in forskolin-stimulated MDCK cells (Experiment 2). In kind it is cell-based, canine. The note with it: compound 10 μM for 10 min prior to forskolin 10 μM for 2 min; FIG. 2. As to the method: MDCK cells were seeded at 100,000 cells per well, and left to adhere overnight. The cells were then treated with the test compound (10 μM) for 10 minutes, prior to stimulation with forskolin (10 μM, Sigma) for 2 minutes. Media was aspirated, and hydrochloric acid (0.1M) was added to lyse the cells. The cAMP assay (Enzo Life Sciences) was performed according to the manufacturer's instructions.
(Cyclic AMP is a second messenger, typically raised through Gs and lowered through Gi signalling.)

Test [2] has as its system MDCK cells. Briefly: Inhibition of in vitro cyst formation in 3D MDCK culture, PGE2-stimulated (Experiment 3, Protocol D). In kind it is cell-based, canine. The note with it: 300 nM PGE2-stimulated, FIG. 3. The source says: In this study, the well-established three-dimensional (3D) MDCK cell model is used to investigate the effects of PDE4 long form activators on the formation of kidney cysts and evaluate their potential in the treatment of polycystic kidney diseases. 3D cysts are generated based on the method of Mao et al. (Mao, Z., Streets, A. J., Ong, A. C. M. Am. J. Physiol. Renal Physiol. 300(6): F1375-F1384, 2011), with some modifications.
Type 1 collagen (Invitrogen) is first prepared on ice by neutralising an acidic stock solution (3 mg/ml) with 17 mM NaOH and diluting it to 1 mg/ml with DMEM, supplemented with 2% (v/v) FBS, 2 mM L-glutamine, 1,000 U penicillin and 1,000 μg streptomycin (DMEM-2% FBS). […]
Phase-contrast images are obtained on the Motic microscope (×4 magnification). 8 images are taken per condition and the cyst diameter measured (up to 150 cyst measurements per well). Cyst spheroid volume is calculated using the formula 4/3πr^3 where r is the radius of the spheroid. A mean cyst volume is then calculated per well. The mean cyst volume and standard deviation between the duplicate wells is then calculated and expressed as a % Cyst Volume compared to the vehicle only (DMSO+300 nM PGE2) control wells.

T1 sequence (Q07343 whole entry, canonical isoform): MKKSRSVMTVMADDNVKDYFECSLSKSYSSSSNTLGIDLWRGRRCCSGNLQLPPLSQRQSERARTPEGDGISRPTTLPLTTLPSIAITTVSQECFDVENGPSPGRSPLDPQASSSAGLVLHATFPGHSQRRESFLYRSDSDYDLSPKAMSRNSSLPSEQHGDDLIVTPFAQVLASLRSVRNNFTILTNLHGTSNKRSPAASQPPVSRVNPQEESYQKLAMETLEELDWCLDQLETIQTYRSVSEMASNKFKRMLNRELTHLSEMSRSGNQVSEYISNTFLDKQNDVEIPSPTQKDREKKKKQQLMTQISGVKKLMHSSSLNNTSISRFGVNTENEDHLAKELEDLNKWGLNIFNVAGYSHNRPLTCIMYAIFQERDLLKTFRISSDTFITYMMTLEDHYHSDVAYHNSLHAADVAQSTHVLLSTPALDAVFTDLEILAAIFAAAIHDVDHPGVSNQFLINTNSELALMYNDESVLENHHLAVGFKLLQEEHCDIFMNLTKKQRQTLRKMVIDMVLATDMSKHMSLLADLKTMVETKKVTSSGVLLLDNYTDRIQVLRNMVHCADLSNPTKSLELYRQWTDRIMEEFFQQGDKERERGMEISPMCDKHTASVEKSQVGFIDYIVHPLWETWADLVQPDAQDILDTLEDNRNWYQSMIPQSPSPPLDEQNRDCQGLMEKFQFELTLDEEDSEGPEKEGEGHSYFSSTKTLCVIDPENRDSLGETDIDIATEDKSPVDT

Take `CN(C)C(=O)c1nc(-c2ccc(Cl)c(F)c2)nn1CC(=O)NCc1cccc(F)c1` [Example 11, 3-(4-chloro-3-fluorophenyl)-1-{[(3-fluorobenzyl)carbamoyl]methyl}-N,N-dimethyl-1H-1,2,4-triazole-5-carboxamide]: the activation at 30 µM on full-length human PDE4B1 (Protocol A) was determined as 84.1%.
In the case of `COC(=O)c1nc(-c2ccc(Cl)c(F)c2)nn1CC(=O)NCc1cccc(F)c1` [Example 1, Methyl 3-(4-chloro-3-fluorophenyl)-1-{[(3-fluorobenzyl)carbamoyl]methyl}-1H-1,2,4-triazole-5-carboxylate], the activation at 30 µM at full-length human PDE4D5 (Protocol A) was found to be 105%; on full-length human PDE4B2 (Protocol A), 19.5%. The “intracellular cAMP levels in MDCK cells (in words)” value in the test with MDCK cells [1] is given as “reduction in intracellular cAMP levels”.
Turning to `CNC(=O)c1nc(-c2ccc(Cl)c(F)c2)nn1CC(=O)NCc1ccc2[nH]ncc2c1` [Example 28, 3-(4-chloro-3-fluorophenyl)-1-({[(1H-indazol-5-yl)methyl]carbamoyl}methyl)-N-methyl-1H-1,2,4-triazole-5-carboxamide], the results for the activation at 30 µM on full-length human PDE4D5 (Protocol B) and at full-length human PDE4B2 (Protocol B) were 101% and -7.9%, respectively. Further, the “cyst formation in 3D culture of MDCK cells (in words)” value with MDCK cells [2] was “inhibition of cyst formation”.
For `CCOC(=O)c1nc(-c2ccc(Cl)c(F)c2)nn1CC(=O)NCc1cccc(OC)c1` [Example 5, Ethyl 3-(4-chloro-3-fluorophenyl)-1-{[(3-methoxybenzyl)carbamoyl]methyl}-1H-1,2,4-triazole-5-carboxylate], the activation at 30 µM at full-length human PDE4B1 (Protocol B) stood at 44%.
Still for that read-out and setting: for `CNC(=O)c1nc(-c2ccc(Cl)c(F)c2)nn1CC(=O)NCc1cccc(OC)c1` [Example 12, 3-(4-chloro-3-fluorophenyl)-1-{[(3-methoxybenzyl)carbamoyl]methyl}-N-methyl-1H-1,2,4-triazole-5-carboxamide] the value was 89.2%; for `CCOC(=O)c1nc(-c2ccc(Cl)c(F)c2)nn1CC(=O)NCc1cccc(F)c1` [Example 4, Ethyl 3-(4-chloro-3-fluorophenyl)-1-{[(3-fluorobenzyl)carbamoyl]methyl}-1H-1,2,4-triazole-5-carboxylate], 80.5%.
Regarding `COCCNC(=O)c1nc(-c2ccc(Cl)c(F)c2)nn1CC(=O)NCc1cccc(F)c1` [Example 20, 3-(4-chloro-3-fluorophenyl)-1-{[(3-fluorobenzyl)carbamoyl]methyl}-N-(2-methoxyethyl)-1H-1,2,4-triazole-5-carboxamide], the values for the activation at 30 µM on full-length human PDE4D5 (Protocol B) and at full-length human PDE4B2 (Protocol B) were 63.3% and -22.4%, respectively.
Taken in the same sequence, the figures for `CNC(=O)c1cc(-c2ccc(Cl)c(F)c2)nn1CC(=O)NCc1cccc(OC)c1` [Example 25, 3-(4-chloro-3-fluorophenyl)-1-{[(3-methoxybenzyl)carbamoyl]methyl}-N-methyl-1H-pyrazole-5-carboxamide] were 39.5% and 21%.
Turning to `COc1cccc(CNC(=O)Cn2nc(-c3ccc(Cl)c(F)c3)nc2C(N)=O)c1` [Example 9, 3-(4-chloro-3-fluorophenyl)-1-{[(3-methoxybenzyl)carbamoyl]methyl}-1H-1,2,4-triazole-5-carboxamide], the activation at 30 µM at full-length human PDE4B1 (Protocol A) was 58.5%.
With `CNC(=O)c1cc(-c2ccc(Cl)c(F)c2)nn1CC(=O)NCc1cccc(F)c1` [Example 26, 3-(4-chloro-3-fluorophenyl)-1-{[(3-fluorobenzyl)carbamoyl]methyl}-N-methyl-1H-pyrazole-5-carboxamide], the activation at 30 µM at full-length human PDE4D5 (Protocol B) was found to be 38.2%; at full-length human PDE4B2 (Protocol B), 17.1%.
Take `CNC(=O)c1nc(-c2ccc(Cl)c(F)c2)nn1CC(=O)NCc1cccc(F)c1` [Example 10, 3-(4-chloro-3-fluorophenyl)-1-{[(3-fluorobenzyl)carbamoyl]methyl}-N-methyl-1H-1,2,4-triazole-5-carboxamide]: the results for the activation at 30 µM at full-length human PDE4B1 (Protocol B) and on full-length human PDE4B2 (Protocol B) were 85.1% and 23.3%, respectively.
`COc1cccc(CNC(=O)Cn2nc(-c3ccc(Cl)c(F)c3)nc2C#N)c1` [Example 16, 2-[3-(4-chloro-3-fluorophenyl)-5-cyano-1H-1,2,4-triazol-1-yl]-N-(3-methoxybenzyl)acetamide]: the activation at 30 µM at full-length human PDE4B1 (Protocol B) stood at 52.2%.
Consider `NC(=O)c1nc(-c2ccc(Cl)c(F)c2)nn1CC(=O)NCc1cccc(F)c1` [Example 8, 3-(4-chloro-3-fluorophenyl)-1-{[(3-fluorobenzyl)carbamoyl]methyl}-1H-1,2,4-triazole-5-carboxamide], for which, at full-length human PDE4B1 (Protocol A), the activation at 30 µM is 50.9%.
